# Data reported in article PMC10341573, “Design, Synthesis, and Biological Evaluation of Novel Quinazolin-4(3H)-One-Based Histone Deacetylase 6 (HDAC6) Inhibitors for Anticancer Activity” (International Journal of Molecular Sciences, 2023).
# Values joined by “and” are separate entries in the source; they are usually repeats but may differ in a detail not shown here. Equal entries are not always repeated. Where two headings read alike, the source gives them in different places.
# Legend:
# MCF7 = experiment: MTT cell proliferation assay, MCF7; type: cell-based, human; conditions: MTT, 72 h, mean ± SD, triplicate, read-out: IC50 ± SD MCF7
# HDAC8 = target: T1, HDAC8 (Homo sapiens, UniProt Q9BY41); experiment: HDAC enzyme activity assay (fluorogenic, Boc-Lys(trifluoroacetyl)-AMC), HDAC8; type: biochemical; conditions: class I HDAC8; mean ± SD, triplicate
# T1 construct: codon-optimized full-length HDAC8; made in house; host or cells: E. coli BL21(DE3), pET14b vector
# T1 sequence (Q9BY41 1-377): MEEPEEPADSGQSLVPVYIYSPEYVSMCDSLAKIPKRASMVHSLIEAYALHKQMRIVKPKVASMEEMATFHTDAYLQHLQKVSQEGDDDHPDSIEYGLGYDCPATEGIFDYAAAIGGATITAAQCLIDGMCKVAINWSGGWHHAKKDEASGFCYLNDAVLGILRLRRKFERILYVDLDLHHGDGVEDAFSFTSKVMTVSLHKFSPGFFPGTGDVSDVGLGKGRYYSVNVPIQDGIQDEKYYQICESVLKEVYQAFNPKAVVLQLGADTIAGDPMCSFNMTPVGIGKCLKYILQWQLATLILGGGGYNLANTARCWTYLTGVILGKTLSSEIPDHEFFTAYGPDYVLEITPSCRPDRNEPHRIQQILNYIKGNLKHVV
# B16 = experiment: MTT cell proliferation assay, B16; type: cell-based, murine; conditions: MTT, 72 h, mean ± SD, triplicate, read-out: IC50 ± SD B16
# HCT116 = experiment: MTT cell proliferation assay, HCT116; type: cell-based, human; conditions: MTT, 72 h, mean ± SD, triplicate, read-out: IC50 ± SD HCT116
# HDAC4 = target: T2, HDAC4 (Homo sapiens, UniProt P56524); experiment: HDAC enzyme activity assay (fluorogenic, Boc-Lys(trifluoroacetyl)-AMC), HDAC4; type: biochemical; conditions: class IIa HDAC4; mean ± SD, triplicate
# T2 construct: catalytic domain of HDAC4 (T648-T1057, full length: UniProt P56524); made in house; host or cells: E. coli BL21(DE3), pET14b vector
# T2 sequence (P56524 648-1057): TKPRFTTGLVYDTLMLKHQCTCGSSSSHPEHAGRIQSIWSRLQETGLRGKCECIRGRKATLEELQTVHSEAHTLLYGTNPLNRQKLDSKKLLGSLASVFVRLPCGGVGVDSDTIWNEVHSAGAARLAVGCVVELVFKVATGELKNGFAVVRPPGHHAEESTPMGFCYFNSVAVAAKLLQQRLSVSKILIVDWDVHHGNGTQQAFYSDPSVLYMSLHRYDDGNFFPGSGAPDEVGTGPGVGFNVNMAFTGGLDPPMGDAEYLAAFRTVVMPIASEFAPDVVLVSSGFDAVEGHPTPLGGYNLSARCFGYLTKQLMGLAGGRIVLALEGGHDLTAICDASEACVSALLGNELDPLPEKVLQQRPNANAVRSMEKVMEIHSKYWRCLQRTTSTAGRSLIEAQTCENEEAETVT
# HEK 293 = experiment: MTT cell proliferation assay, HEK 293; type: cell-based, human; conditions: MTT, 72 h, mean ± SD, triplicate, read-out: IC50 ± SD HEK 293
# HDAC6 = target: T3, HDAC6 (Homo sapiens, UniProt Q9UBN7); experiment: HDAC enzyme activity assay (fluorogenic, Boc-Lys(acetyl)-AMC), HDAC6; type: biochemical; conditions: for IC50: class IIb HDAC6, mean ± SD, triplicate
# T3 construct: Full-length recombinant HDAC6 was purchased from BPS Bioscience; purchased BPS Bioscience
# T3 sequence (Q9UBN7 1-1215): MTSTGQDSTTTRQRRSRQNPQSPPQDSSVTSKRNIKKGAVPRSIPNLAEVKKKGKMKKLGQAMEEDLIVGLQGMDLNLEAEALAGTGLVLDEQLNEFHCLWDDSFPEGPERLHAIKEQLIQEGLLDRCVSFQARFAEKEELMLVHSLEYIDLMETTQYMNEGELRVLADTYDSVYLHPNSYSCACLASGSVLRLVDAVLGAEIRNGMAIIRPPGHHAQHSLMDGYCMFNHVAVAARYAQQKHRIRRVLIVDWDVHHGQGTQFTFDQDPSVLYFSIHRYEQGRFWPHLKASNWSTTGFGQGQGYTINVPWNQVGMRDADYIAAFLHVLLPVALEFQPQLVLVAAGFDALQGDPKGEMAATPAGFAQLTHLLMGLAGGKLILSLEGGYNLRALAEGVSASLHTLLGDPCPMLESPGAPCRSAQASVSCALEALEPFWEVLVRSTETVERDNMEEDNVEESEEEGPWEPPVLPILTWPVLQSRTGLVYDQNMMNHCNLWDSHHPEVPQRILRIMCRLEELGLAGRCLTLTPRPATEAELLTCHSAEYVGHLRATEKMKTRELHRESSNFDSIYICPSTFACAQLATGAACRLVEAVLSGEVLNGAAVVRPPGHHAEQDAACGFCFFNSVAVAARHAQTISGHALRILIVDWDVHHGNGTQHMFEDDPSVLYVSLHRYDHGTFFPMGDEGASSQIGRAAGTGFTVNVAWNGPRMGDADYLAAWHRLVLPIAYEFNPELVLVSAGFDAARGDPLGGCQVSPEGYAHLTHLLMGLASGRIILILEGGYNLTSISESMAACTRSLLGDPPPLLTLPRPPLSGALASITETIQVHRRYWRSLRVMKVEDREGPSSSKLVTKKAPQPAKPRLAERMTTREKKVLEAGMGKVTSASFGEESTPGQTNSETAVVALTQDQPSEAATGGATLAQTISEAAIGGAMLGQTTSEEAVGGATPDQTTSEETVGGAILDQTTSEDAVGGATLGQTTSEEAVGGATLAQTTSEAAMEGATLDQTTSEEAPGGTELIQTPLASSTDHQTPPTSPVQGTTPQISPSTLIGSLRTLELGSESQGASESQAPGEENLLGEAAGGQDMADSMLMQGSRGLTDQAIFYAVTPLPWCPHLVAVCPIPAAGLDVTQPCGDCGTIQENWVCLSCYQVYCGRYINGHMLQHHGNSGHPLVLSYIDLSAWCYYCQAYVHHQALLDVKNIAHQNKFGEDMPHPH
SMILES,"IC50 (MCF7; Homo sapiens, MCF7, 72 h) [µM]",IC50 (HDAC8) [µM],"IC50 (B16; Mus musculus, B16) [µM]","IC50 (HCT116; Homo sapiens, HCT-116) [µM]",IC50 (HDAC4) [µM],"IC50 (HEK 293; Homo sapiens, HEK293) [µM]",IC50 (HDAC6),IC50 (MCF7) [µM],IC50 (B16) [µM],IC50 (HCT116) [µM],IC50 (HEK 293) [µM],selectivity against class IIa HDAC4 (HDAC6; HDAC6 versus HDAC4) [fold],selectivity against class I HDAC8 (HDAC6; HDAC6 versus HDAC8) [fold]
"Cc1cccc2nc(SCc3ccc(C(=O)NO)cc3)n(-c3ccccc3)c(=O)c12 [Compound 5p, N-hydroxy-4-(((5-methyl-4-oxo-3-phenyl-3,4-dihydroquinazolin-2-yl)thio)methyl)benzamide]",> 50,2.7 ± 0.6,> 50,> 50,0.4 ± 0.14,> 50,0.22 ± 0.05 µM,,,,,,
"CC(/C=C/C(=O)NO)=C\[C@@H](C)C(=O)c1ccc(N(C)C)cc1 [Trichostatin A, reference compound]",,,,,,,,42.5 ± 11.3,28.9 ± 13,18.3 ± 5.63,15.3 ± 1.45,,
"Cc1cccc(-n2c(SCc3ccc(C(=O)NO)cc3)nc3ccccc3c2=O)c1 [Compound 5g, N-hydroxy-4-(((4-oxo-3-(m-tolyl)-3,4-dihydroquinazolin-2-yl)thio)methyl)benzamide]",25.3 ± 3.21,0.79 ± 0.16,23 ± 13.7,30.7 ± 15.8,0.87 ± 0.31,> 50,0.26 ± 0.02 µM,,,,,,
"O=C(NO)c1ccc(CSc2nc3ccccc3c(=O)n2-c2ccc(Cl)cc2)cc1 [Compound 5a, 4-(((3-(4-chlorophenyl)-4-oxo-3,4-dihydroquinazolin-2-yl)thio)methyl)-N-hydroxybenzamide]",26.5 ± 3.5,24,48.8 ± 9.68,46.2 ± 20,4.5 ± 1.2,30.9,5.6 ± 0.6 µM,,,,,,
"O=C(NO)c1ccc(CSc2nc3ccccc3c(=O)n2-c2ccccc2)cc1 [Compound 5b, N-hydroxy-4-(((4-oxo-3-phenyl-3,4-dihydroquinazolin-2-yl)thio)methyl)benzamide]",24.3 ± 5.97,1.4 ± 0.3,28.9 ± 2.32,17.6 ± 1.77,2.3 ± 1.1,26.4 ± 5,0.15 ± 0.01 µM,,,,,,
"Cc1cccc2nc(SCc3ccc(C(=O)NO)cc3)n(-c3ccc(Cl)cc3)c(=O)c12 [Compound 5s, 4-(((3-(4-chlorophenyl)-5-methyl-4-oxo-3,4-dihydroquinazolin-2-yl)thio)methyl)-N-hydroxybenzamide]",> 50,5.9 ± 0.8,> 50,> 50,0.91 ± 0.33,> 50,0.86 ± 0.06 µM,,,,,,
"O=C(NO)c1ccc(CSc2nc3ccccc3c(=O)n2-c2cccc(Cl)c2)cc1 [Compound 5h, 4-(((3-(3-chlorophenyl)-4-oxo-3,4-dihydroquinazolin-2-yl)thio)methyl)-N-hydroxybenzamide]",> 50,1.1 ± 0.3,> 50,> 50,1.4 ± 0.5,> 50,0.17 ± 0.03 µM,,,,,,
"O=C(NO)c1ccc(CSc2nc3ccccc3c(=O)n2-c2ccccc2F)cc1 [Compound 5i, 4-(((3-(2-fluorophenyl)-4-oxo-3,4-dihydroquinazolin-2-yl)thio)methyl)-N-hydroxybenzamide]",> 50,2.9 ± 0.6,> 50,40.4 ± 16,8.4 ± 1.2,> 50,0.36 ± 0.04 µM,,,,,,
"O=C(NO)c1ccc(CSc2nc3cc(Cl)ccc3c(=O)n2-c2ccccc2F)cc1 [Compound 5m, 4-(((7-chloro-3-(2-fluorophenyl)-4-oxo-3,4-dihydroquinazolin-2-yl)thio)methyl)-N-hydroxybenzamide]",> 50,3.3 ± 0.9,> 50,> 50,0.56 ± 0.24,> 50,0.21 ± 0.05 µM,,,,,,
"O=C(NO)c1ccc(CSc2nc3ccccc3c(=O)n2-c2ccc(Br)cc2)cc1 [Compound 5e, 4-(((3-(4-bromophenyl)-4-oxo-3,4-dihydroquinazolin-2-yl)thio)methyl)-N-hydroxybenzamide]",44.6 ± 1.07,3 ± 0.5,26.1 ± 1.27,46.4 ± 17.8,1.1 ± 0.4,> 50,1.1 ± 0.1 µM,,,,,,
"Cc1ccc(-n2c(SCc3ccc(C(=O)NO)cc3)nc3cc(Cl)ccc3c2=O)cc1C [Compound 5o, 4-(((7-chloro-3-(3,4-dimethylphenyl)-4-oxo-3,4-dihydroquinazolin-2-yl)thio)methyl)-N-hydroxybenzamide]",> 50,14,> 50,> 50,7.1 ± 1.1,> 50,0.4 µM and 0.39 µM,,,,,18,36
"C#Cc1cccc(Nc2ncnc3cc(OCCOC)c(OCCOC)cc23)c1 [Erlotinib, reference compound]",> 50,,> 50,> 50,,> 50,,,,,,,
"CN1CCc2c(c3ccccc3n2Cc2ccc(C(=O)NO)cc2)C1 [Tubastatin, reference compound]",12.7 ± 4.68,,1.99 ± 0.25,1.34 ± 0.04,,1.26 ± 0.29,,,,,,,
"O=C(NO)c1ccc(CSc2nc3cc(Cl)ccc3c(=O)n2-c2ccccc2)cc1 [Compound 5j, 4-(((7-chloro-4-oxo-3-phenyl-3,4-dihydroquinazolin-2-yl)thio)methyl)-N-hydroxybenzamide]",> 50,4 ± 1,> 50,> 50,4.3 ± 1.2,> 50,0.65 ± 0.07 µM,,,,,,
